Patent US20220273590A1, “COMPOUNDS FOR PREVENTION AND TREATMENT OF POST-OPERATIVE COGNITIVE DYSFUNCTION” (ABREXA PHARMACEUTICALS, INC., priority 2019, published 2022)
“And” between values parts separate entries of the source, which are not always exact repeats. Identical values can stand only once. Like-named read-outs stand apart in the source and are kept apart here.

Legend:
[1] = Plasma levels of J147 after oral administration in Basis suspension; type: in vivo, Adult Wister Rats; settings: oral 20 mg/kg in Basis suspension
Method: (§1) Plasma samples obtained during surgery in J147-treated rats and 3 control rats were measured for circulating levels of J147. Results of pharmacokinetic measures of both plasma and brain levels of J147 in rats following oral administration of J147 in basis suspension at 20 mg/kg and also following intravascular administration at 5 mg/kg are shown in Table 2A-C below. When taking the absence of an appropriate peak as zero, mean concentration is 0 ng/ml in controls, 3.103 ng/ml in acutely treated rats and 0.233 ng/ml in chronically treated rats. J147 levels in food were verified as well (467 mg/kg). […] During the first 10 days after surgery and individual housing, rats on the diet ate on average 20±1 g, which was similar to the 20±1 g in surgery with control food and 23±1 g in non-surgery controls, verifying the anticipated intake of 10 mg J147/rat/day and further supporting no preference or aversion for the diet food.
Tables 2A-2B. Pharmacokinetic Measures of Plasma and Brain Levels of J147 Formulated in Basis Suspension Administered Orally to Adult Wister Rats at 20mg/kg.

[2] = Pharmacokinetic plasma parameters of J147, oral and intravascular administration; type: in vivo, Adult Wister Rats; settings: for FInf: calculated based on AUCInf; for Flast: calculated based on AUClast
Method: as §1

[3] = IV 5 mg/kg, 1 mg/mL in DMSO/PEG 200/Saline 5/70/25, individual animals (1148, 1154, 1156, 1158), 5 mg/kg
[4] = IV 5 mg/kg, individual animals (1148, 1154, 1156, 1158), 5 mg/kg
[5] = PO_A 20 mg/kg, 7 mg/mL in Basis, individual animals (1142, 1144, 1150, 1166), 20 mg/kg
[6] = PO_A 20 mg/kg, individual animals (1142, 1144, 1150, 1166), 20 mg/kg
[7] = Wistar, rat, plasma, iv, 5 mg/kg, IV 5 mg/kg, Mean of 4 animals
[8] = Wistar, rat, plasma, po, 20 mg/kg, PO_B (oral, Basis), Mean

## COc1cccc(/C=N/N(C(=O)C(F)(F)F)c2ccc(C)cc2C)c1 [J147]
[1]; Wistar, rat, plasma, po, 20 mg/kg, 0.25 h, individual rats (Rat 10, 11, 12), read-out: Plasma Conc.
  concentration at 0.25 h: 1.29 ng/mL
[1]; Wistar, rat, plasma, po, 20 mg/kg, 0.25 h, mean of rats, read-out: Plasma Conc. Mean
  concentration at 0.25 h: 1.34 ng/mL
[1]; Wistar, rat, plasma, po, 20 mg/kg, 0.5 h, mean of rats, read-out: Plasma Conc. Mean
  concentration at 0.5 h: 3.94 ng/mL
[1]; Wistar, rat, plasma, po, 20 mg/kg, 1 h, individual rats (Rat 10, 11, 12), read-out: Plasma Conc.
  concentration at 1 h: 7.34 ng/mL
[1]; Wistar, rat, plasma, po, 20 mg/kg, 1 h, mean of rats, read-out: Plasma Conc. Mean
  concentration at 1 h: 8.19 ng/mL
[1]; Wistar, rat, plasma, po, 20 mg/kg, 2 h, individual rats (Rat 10, 11, 12), read-out: Plasma Conc.
  concentration at 2 h: 15.1 ng/mL
[1]; Wistar, rat, plasma, po, 20 mg/kg, 2 h, mean of rats, read-out: Plasma Conc. Mean
  concentration at 2 h: 15.8 ng/mL
[1]; Wistar, rat, plasma, po, 20 mg/kg, 4 h, mean of rats, read-out: Plasma Conc. Mean
  concentration at 4 h: 8.8 ng/mL
[1]; Wistar, rat, plasma, po, 20 mg/kg, 6 h, individual rats (Rat 10, 11, 12), read-out: Plasma Conc.
  concentration at 6 h: 3.14 ng/mL
[1]; Wistar, rat, plasma, po, 20 mg/kg, 6 h, mean of rats, read-out: Plasma Conc. Mean
  concentration at 6 h: 2.46 ng/mL
[1]; Wistar, rat, plasma, po, 20 mg/kg, 8 h, individual rats (Rat 10, 11, 12), read-out: Plasma Conc.
  concentration at 8 h: 0.822 ng/mL
[1]; Wistar, rat, plasma, po, 20 mg/kg, 8 h, mean of rats, read-out: Plasma Conc. Mean
  concentration at 8 h: 0.788 ng/mL
[1]; 0.25 h, individual rats (Rat 10, 11, 12), 20 mg/kg
  Plasma Conc.: BLOQ and 1.38 ng/mL
[1]; 0.5 h, individual rats (Rat 10, 11, 12), 20 mg/kg
  Plasma Conc.: 1.52 ng/mL and 5.77 ng/mL and 4.54 ng/mL
[1]; 1 h, individual rats (Rat 10, 11, 12), 20 mg/kg
  Plasma Conc.: 8.39 ng/mL and 8.83 ng/mL
[1]; 2 h, individual rats (Rat 10, 11, 12), 20 mg/kg
  Plasma Conc.: 16.9 ng/mL and 15.4 ng/mL
[1]; 4 h, individual rats (Rat 10, 11, 12), 20 mg/kg
  Plasma Conc.: 6.92 ng/mL and 6.35 ng/mL and 13.2 ng/mL
[1]; 6 h, individual rats (Rat 10, 11, 12), 20 mg/kg
  Plasma Conc.: 1.78 ng/mL and 2.47 ng/mL
[1]; 8 h, individual rats (Rat 10, 11, 12), 20 mg/kg
  Plasma Conc.: 0.654 ng/mL and 0.888 ng/mL
[1]; 12 h, individual rats (Rat 10, 11, 12)
  Plasma Conc.: BLOQ
[1]; 16 h, individual rats (Rat 10, 11, 12)
  Plasma Conc.: BLOQ
[1]; 20 h, individual rats (Rat 10, 11, 12)
  Plasma Conc.: BLOQ
[1]; 24 h, individual rats (Rat 10, 11, 12)
  Plasma Conc.: BLOQ
[2]; [3]
  C0: 4706 ng/mL and 384 ng/mL and 1572 ng/mL and 2509 ng/mL
  Cl_obs: 90.2 mL/min/kg and 98.9 mL/min/kg and 107 mL/min/kg
  Tmax: 4.98 min and 15 min
  t1/2: 64.8 min and 57.8 min and 51.1 min
[2]; IV 5 mg/kg, Mean of 4 animals
  AUC_% Ex Trap: 1.58%
  Cl_obs: 77.4 mL/min/kg
  vss_obs: 5.18 L/kg
[2]; [4]
  AUCInf: 842 ng·h/mL and 631 ng·h/mL and 781 ng·h/mL
  AUC_% Ex Trap: 1.14% and 2.31% and 1.89% and 0.979%
  MRT: 55.6 min and 44.1 min and 34.3 min
  vss_obs: 3.39 L/kg and 6.41 L/kg and 6.82 L/kg and 4.07 L/kg
[2]; IV 5 mg/kg, last time point 6 h, Mean of 4 animals
  AUClast: 782 ng·mL·h
[2]; IV 5 mg/kg, last time point 6 h, individual animals (1148, 1154, 1156, 1158), 5 mg/kg
  AUClast: 913 ng·mL·h and 823 ng·mL·h and 619 ng·mL·h and 774 ng·mL·h
[2]; [5]
  Cmax: 29.0 ng/mL and 39.9 ng/mL and 36.5 ng/mL and 69.2 ng/mL
  t1/2: 96.6 min and 70.8 min
[2]; PO_A 20 mg/kg, Mean
  AUC_% Ex Trap: 7.60%
  FInf: 4.29%
  Flast: 3.61%
[2]; [6]
  FInf: 2.64% and 2.72% and 7.50%
  Flast: 2.45% and 2.23% and 2.51% and 7.25%
  AUCInf: 82.5 ng·h/mL and 91.5 ng·h/mL and 189 ng·h/mL
  AUC_% Ex Trap: 7.91% and 9.72% and 5.17%
[2]; PO_A 20 mg/kg, last time point 6 h, Mean
  AUClast: 105 ng·mL·h
[2]; PO_A 20 mg/kg, last time point 6 h, individual animals (1142, 1144, 1150, 1166), 20 mg/kg
  AUClast: 76.0 ng·mL·h and 81.6 ng·mL·h and 82.6 ng·mL·h and 180 ng·mL·h
[2]; PO_B (oral, Basis), Mean
  AUC_% Ex Trap: 15.9%
[2]; PO_B (oral, Basis), last time point 4 h, Mean
  AUClast: 64.7 ng·mL·h
[2]; Wistar, rat, plasma, iv, 5 mg/kg, IV 5 mg/kg, 1 mg/mL in DMSO/PEG 200/Saline 5/70/25, individual animals (1148, 1154, 1156, 1158)
  half-life: 63.6 min
[2]; [7]
  AUC(0-inf): 795 ng·h/mL
  half-life: 59.2 min
[2]; Wistar, rat, plasma, iv, 5 mg/kg, IV 5 mg/kg, Mean of 4 animals, read-out: C0
  C0: 2290 ng/mL
[2]; Wistar, rat, plasma, iv, 5 mg/kg, IV 5 mg/kg, Mean of 4 animals, read-out: MRT
  MRT: 41.7 min
[2]; Wistar, rat, plasma, iv, 5 mg/kg, IV 5 mg/kg, Mean of 4 animals, read-out: tmax
  Tmax: 7.5 min
[2]; Wistar, rat, plasma, iv, 5 mg/kg, IV 5 mg/kg, individual animals (1148, 1154, 1156, 1158)
  AUC(0-inf): 924 ng·h/mL
[2]; Wistar, rat, plasma, iv, 5 mg/kg, IV 5 mg/kg, individual animals (1148, 1154, 1156, 1158), read-out: MRT
  MRT: 32.8 min
[2]; Wistar, rat, plasma, po, 20 mg/kg, PO_A 20 mg/kg, 7 mg/mL in Basis, Mean
  half-life: 84.6 min
[2]; Wistar, rat, plasma, po, 20 mg/kg, PO_A 20 mg/kg, 7 mg/mL in Basis, Mean, read-out: Cmax
  Cmax: 43.7 ng/mL
[2]; Wistar, rat, plasma, po, 20 mg/kg, PO_A 20 mg/kg, 7 mg/mL in Basis, Mean, read-out: tmax
  Tmax: 52.8 min
[2]; Wistar, rat, plasma, po, 20 mg/kg, PO_A 20 mg/kg, 7 mg/mL in Basis, individual animals (1142, 1144, 1150, 1166)
  half-life: 87 min
[2]; Wistar, rat, plasma, po, 20 mg/kg, PO_A 20 mg/kg, 7 mg/mL in Basis, individual animals (1142, 1144, 1150, 1166), read-out: tmax
  Tmax: 60 min
[2]; Wistar, rat, plasma, po, 20 mg/kg, PO_A 20 mg/kg, Mean
  AUC(0-inf): 121 ng·h/mL
[2]; [8]
  AUC(0-inf): 76.9 ng·h/mL
  half-life: 85.2 min
[2]; Wistar, rat, plasma, po, 20 mg/kg, PO_B (oral, Basis), Mean, read-out: Cmax
  Cmax: 47.4 ng/mL
[2]; Wistar, rat, plasma, po, 20 mg/kg, PO_B (oral, Basis), Mean, read-out: tmax
  Tmax: 30 min
